Assay results taken from ChEMBL document CHEMBL1155451, “Complexes of bacterial nicotinate mononucleotide adenylyltransferase with inhibitors: implication for structure-based drug design and improvement” (J Med Chem, 2010).
Active and inactive are the calls of the source. The calls are words filed in the database; no cut-off is given here.

Key:
[1] = molecular target: T1, Probable nicotinate-nucleotide adenylyltransferase (Bacillus anthracis, UniProt C3L5T6)
T1 sequence (C3L5T6 whole entry): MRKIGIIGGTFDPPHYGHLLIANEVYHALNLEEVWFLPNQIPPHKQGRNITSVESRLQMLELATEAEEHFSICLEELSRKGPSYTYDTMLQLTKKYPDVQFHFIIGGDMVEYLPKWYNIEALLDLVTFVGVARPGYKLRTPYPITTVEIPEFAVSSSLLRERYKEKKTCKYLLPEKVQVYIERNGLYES

[2] = molecular target: T2, Probable nicotinate-nucleotide adenylyltransferase (Bacillus anthracis) (UniProt C3L5T6); experiment: Inhibition of Bacillus anthracis nicotinate-nucleotide adenosyltransferase up to 100 uM preincubated for 5 mins before addition of substrate by malachite green reagent method
T2 sequence (whole entry): T1 sequence (C3L5T6 whole entry)

SMILES	IC50 [1] [µM]	inhibition [2]
CC(/C=N/NC(=O)CCC(=O)Nc1ccc(Br)cc1)c1ccc2ccccc2c1 (stereo not drawn)	> 200	–
O=C(O)CN(/N=C/c1cccc2ccccc12)C(=O)CCC(=O)Nc1ccccc1Cl	> 200	–
O=C(O)CN(/N=C/c1ccc(/C=N/N(CC(=O)O)C(=O)CCC(=O)Nc2ccccc2Cl)cc1)C(=O)CCC(=O)Nc1ccccc1Cl	–	inactive
